From patent US7005271B1, “Method for the determination of the prethrombotic state” (priority 1994, dated 2006)

Columns and labels:
U937 cells = assay: DNA analysis by flow cytometry of U937 cells after apoptosis induction; type: cell-based; conditions: 40 μM 7β hydroxycholesterol
Description: U937 cells are grown in a humidified 5% CO2 atmosphere at 37° C., using RPMI 1640 medium with Glutamax-I, supplemented with 10% heat-inactivated fetal calf serum, 1 mM sodium pyruvate, non-essential amino acids and gentamicin icin at 5 μg/mL Cells are usually plated at an initial conentration of 1.10^5/ml. Apoptosis induction is achieved by 40 μM 7β hydroxycholesterol- or 5 μg/ml actinomycin D-treatment of U937 cells at 37° C. during 8 to 24 hours. Cells have to be seeded at 3 to 4.10^5 cells per ml 6 h before treatment. Cell supernatant is obtained by centrifugation of treated cells at 500 g during 7 min and CaCl2 is added to a final concentration of 10 mM before addition of 200 μl/well of supernatant. For each experiment, a control without 7β hydroxycholesterol or actinomycin D has to be performed and culture medium containing 10% fetal calf serum should also be tested. It has to be emphasized that the content of microparticles of 10% fetal calf serum was low, probably due to removal of most of the cell fragments at sterilizing ultrafiltration. The amount of captured microparticles is determined using the prothrombinase assay.
The Prothrombinase Activity is Correlated with DNA Analysis by Flow Cytometry (Table 2)

[1] = Storage stability of biotinylated annexin V; type: physicochemical
Description: After 90 min at 25° C., the reaction is stopped by adding IM Lysine/HCl to a final concentration of 10 mM. The biotinylated annexin V is finally dialysed overnight at 4° C. against Storage buffer.

Molecule	% of hypodiploid DNA (U937 cells; 0 h treatment)	% of hypodiploid DNA (U937 cells; 8 h treatment)	% of hypodiploid DNA (U937 cells; 10 h treatment)	% of hypodiploid DNA (U937 cells; 12 h treatment)	% of hypodiploid DNA (U937 cells; 20 h treatment)	% of hypodiploid DNA (U937 cells; 22 h treatment)	storage stability ([1]; stored below 0° C.)	storage stability (anti-phospholipid potential) ([1]; stored for months at −80° C.)
CC(C)CCC[C@@H](C)[C@H]1CC[C@H]2[C@@H]3[C@@H](O)C=C4C[C@@H](O)CC[C@]4(C)[C@H]3CC[C@]12C [7β-hydroxycholesterol]	2.75%	9.43%	12.58%	18.31%	35.03%	41.54%		
annexin-V^Bi: Human placenta annexin V biotinylated with biotin-X-OSu, insolubilized onto streptavidin-coated plates as capture receptor							stable for weeks	without detectable loss of anti-phospholipid potential
